Reference: BindingDB's records for doi:10.1016/j.bmcl.2004.01.021 (Atherogenics, 2004)

Target: T1, Tumor necrosis factor receptor superfamily member 1A (Homo sapiens, UniProt P19438)
T1 sequence (P19438 whole entry): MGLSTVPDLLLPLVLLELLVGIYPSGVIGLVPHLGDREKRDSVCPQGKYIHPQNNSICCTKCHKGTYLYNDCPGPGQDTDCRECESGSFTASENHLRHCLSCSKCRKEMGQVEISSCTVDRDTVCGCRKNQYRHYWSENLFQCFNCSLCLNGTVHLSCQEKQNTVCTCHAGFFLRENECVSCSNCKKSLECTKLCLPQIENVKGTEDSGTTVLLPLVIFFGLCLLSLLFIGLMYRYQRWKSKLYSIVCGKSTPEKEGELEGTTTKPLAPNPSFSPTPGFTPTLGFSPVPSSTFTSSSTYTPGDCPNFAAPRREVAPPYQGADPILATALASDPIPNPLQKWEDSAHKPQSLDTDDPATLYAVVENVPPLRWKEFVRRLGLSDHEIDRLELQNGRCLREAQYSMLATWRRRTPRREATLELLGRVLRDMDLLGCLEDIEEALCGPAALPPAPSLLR
Test: ChEBML_224214
Description: Inhibition of TNF-alpha-induced VCAM-1 expression

Compared with `COc1cc(C(=O)/C=C/c2cc(-c3cccs3)ccc2OC)ccc1O` [(E)-1-(4-Hydroxy-3-methoxy-phenyl)-3-(2-methoxy-5-thiophen-2-yl-phenyl)-propenone], `COc1ccc(OC)c(C(=O)/C=C/c2cc(-c3cccs3)ccc2OC)c1` [(E)-1-(2,5-Dimethoxy-phenyl)-3-(2-methoxy-5-thiophen-2-yl-phenyl)-propenone] is 3.5-fold lower in IC50: 7 µM for the first, 2 µM for the second. The second is the more potent here.

Going from `COC1=C(c2c(OC)cc(C(=O)/C=C/c3cc(OC)c(OC)c(OC)c3)cc2OC)Oc2ccccc2O1` [(E)-1-[3,5-Dimethoxy-4-(3-methoxy-benzo[1,4]dioxin-2-yl)-phenyl]-3-(3,4,5-trimethoxy-phenyl)-propenone] to `COC1=C(c2ccc(C(=O)/C=C/c3cc(OC)c(OC)c(OC)c3)cc2OC)Oc2ccccc2O1` [(E)-1-[3-Methoxy-4-(3-methoxy-benzo[1,4]dioxin-2-yl)-phenyl]-3-(3,4,5-trimethoxy-phenyl)-propenone], the IC50 rises from 2 µM to 4 µM (2-fold). The first is the more potent here.

Compared with `COc1ccc(C(=O)/C=C/c2ccc(-c3cccs3)cc2)cc1OC` [(E)-1-(3,4-Dimethoxy-phenyl)-3-(4-thiophen-2-yl-phenyl)-propenone], `COc1cc(C(=O)/C=C/c2ccc(-c3cccs3)cc2)cc(OC)c1OC` [(E)-3-(4-Thiophen-2-yl-phenyl)-1-(3,4,5-trimethoxy-phenyl)-propenone] is 2-fold lower in IC50: 12 µM for the first, 6 µM for the second.

`COc1ccc(-c2cccs2)cc1/C=C/C(=O)c1ccc2c(c1)OCO2` [(E)-1-Benzo[1,3]dioxol-5-yl-3-(2-methoxy-5-thiophen-2-yl-phenyl)-propenone] and `COc1ccc(-c2cc(C)cs2)cc1/C=C/C(=O)c1ccc2c(c1)OCO2` [(E)-1-Benzo[1,3]dioxol-5-yl-3-[2-methoxy-5-(4-methyl-thiophen-2-yl)-phenyl]-propenone] are the same in IC50: 4 µM for the first, 4 µM for the second.

Compared with `COc1cc(OC)c(-c2cc3ccccc3s2)cc1/C=C/C(=O)c1cc(OC)c(OCC2CC2)c(OC)c1` [(E)-3-(5-Benzo[b]thiophen-2-yl-2,4-dimethoxy-phenyl)-1-(4-cyclopropylmethoxy-3,5-dimethoxy-phenyl)-propenone], `COc1cc(OC)c(-c2cc3ccccc3s2)cc1/C=C/C(=O)c1ccc(OC)c(OC)c1` [(E)-3-(5-Benzo[b]thiophen-2-yl-2,4-dimethoxy-phenyl)-1-(3,4-dimethoxy-phenyl)-propenone] is lower in IC50: over 50 µM for the first, 11 µM for the second. The second is the more potent here.

First: COc1cc(C(=O)/C=C/c2ccccc2)cc(OC)c1OC [3-phenyl-1-(3,4,5-trimethoxyphenyl)prop-2-en-1-one]
Second: COc1ccc(-c2cccs2)cc1/C=C/C(=O)c1cc(OC)c(OC)c(OC)c1 [(E)-3-(2-Methoxy-5-thiophen-2-yl-phenyl)-1-(3,4,5-trimethoxy-phenyl)-propenone]
The IC50 of the first is 2-fold higher: 6 µM for the first, 3 µM for the second.

Going from `COc1ccc(/C=C/C(=O)c2ccc(OC)cc2OC)cc1` [1-(2,4-Dimethoxy-phenyl)-3-(4-methoxy-phenyl)-propenone] to `COc1ccc(C(=O)/C=C/c2ccc(OC)c(OC)c2)cc1` [(E)-3-(3,4-Dimethoxy-phenyl)-1-(4-methoxy-phenyl)-propenone], the IC50 rises from 7 µM to 15 µM (2.1-fold).

First: COc1cc(OC)c(-c2cc3ccccc3s2)cc1/C=C/C(=O)c1ccc(OC(C)(C)C(=O)O)cc1 [2-{4-[(E)-3-(5-Benzo[b]thiophen-2-yl-2,4-dimethoxy-phenyl)-acryloyl]-phenoxy}-2-methyl-propionic acid]
Second: COc1cc(OC)c(-c2cc3ccccc3s2)cc1/C=C/C(=O)c1ccc(NC2OC(CO)C(O)C(O)C2O)cc1 (stereo unspecified) [(E)-3-(5-Benzo[b]thiophen-2-yl-2,4-dimethoxy-phenyl)-1-[4-(3,4,5-trihydroxy-6-hydroxymethyl-tetrahydro-pyran-2-ylamino)-phenyl]-propenone]
The IC50 of the first is 2.8-fold lower: 6 µM for the first, 17 µM for the second.

`COc1ccc(-c2cc(C)cs2)cc1/C=C/C(=O)c1ccc(OC)c(OC)c1` [(E)-1-(3,4-Dimethoxy-phenyl)-3-[2-methoxy-5-(4-methyl-thiophen-2-yl)-phenyl]-propenone] and `COc1ccc(-c2cc(C)cs2)cc1/C=C/C(=O)c1cc(OC)c(OC)c(OC)c1` [(E)-3-[2-Methoxy-5-(4-methyl-thiophen-2-yl)-phenyl]-1-(3,4,5-trimethoxy-phenyl)-propenone] are the same in IC50: 2 µM for the first, 2 µM for the second.

Going from `O=C(/C=C/c1ccc(F)cc1)c1ccc(F)cc1` [(E)-1,3-Bis-(4-fluoro-phenyl)-propenone] to `O=C(/C=C/c1ccc(F)c(-c2cccs2)c1)c1ccc(F)cc1` [(E)-1-(4-Fluoro-phenyl)-3-(4-fluoro-3-thiophen-2-yl-phenyl)-propenone], the IC50 falls from 25 µM to 4 µM (6.2-fold).

Going from `COCCOc1c(OC)cc(C(=O)/C=C/c2cc(OC)c(OC)c(OC)c2)cc1OC` [(E)-1-[3,5-Dimethoxy-4-(2-methoxy-ethoxy)-phenyl]-3-(3,4,5-trimethoxy-phenyl)-propenone] to `COc1cc(/C=C/C(=O)c2cc(OC)c(OCc3ccco3)c(OC)c2)cc(OC)c1OC` [(E)-1-[4-(Furan-2-ylmethoxy)-3,5-dimethoxy-phenyl]-3-(3,4,5-trimethoxy-phenyl)-propenone], the IC50 falls from 5 µM to 3 µM (1.7-fold).

`COc1cc(/C=C/C(=O)c2ccc3c(c2)OC(O)(O)O3)cc(-c2cccs2)c1OC` [(E)-1-(2,2-Dihydroxy-benzo[1,3]dioxol-5-yl)-3-(3,4-dimethoxy-5-thiophen-2-yl-phenyl)-propenone] and `COc1cc(C(=O)/C=C/c2cc(OC)c(OC)c(-c3cccs3)c2)cc(OC)c1OCC(=O)O` [{4-[(E)-3-(3,4-Dimethoxy-5-thiophen-2-yl-phenyl)-acryloyl]-2,6-dimethoxy-phenoxy}-acetic acid] are the same in IC50: 1 µM for the first, 1 µM for the second.

Compared with `COc1ccc(COc2c(OC)cc(C(=O)/C=C/c3cc(OC)c(OC)c(OC)c3)cc2OC)cc1OC` [(E)-1-[4-(3,4-Dimethoxy-benzyloxy)-3,5-dimethoxy-phenyl]-3-(3,4,5-trimethoxy-phenyl)-propenone], `COc1ccc(COc2c(OC)cc(C(=O)/C=C/c3cc(OC)c(OC)c(OC)c3)cc2OC)cc1` [(E)-1-[3,5-Dimethoxy-4-(4-methoxy-benzyloxy)-phenyl]-3-(3,4,5-trimethoxy-phenyl)-propenone] is 2-fold lower in IC50: 2 µM for the first, 1 µM for the second. The second is the more potent here.

Compared with `CCOc1cc(OCC)c(C(=O)/C=C/c2cc(Br)c(OC)c(OC)c2)cc1OCC` [(E)-3-(3-Bromo-4,5-dimethoxy-phenyl)-1-(2,4,5-triethoxy-phenyl)-propenone], `COc1cc(/C=C/C(=O)c2cc(OC)c(OCc3cccs3)c(OC)c2)cc(OC)c1OC` [(E)-1-[3,5-Dimethoxy-4-(thiophen-2-ylmethoxy)-phenyl]-3-(3,4,5-trimethoxy-phenyl)-propenone] is 5-fold lower in IC50: 15 µM for the first, 3 µM for the second.

First: COc1cc(/C=C/C(=O)c2cc(OC)c(OCc3ccc4c(c3)OCO4)c(OC)c2)cc(OC)c1OC [(E)-1-[4-(Benzo[1,3]dioxol-5-ylmethoxy)-3,5-dimethoxy-phenyl]-3-(3,4,5-trimethoxy-phenyl)-propenone]
Second: COc1ccc(-c2cc3ccccc3s2)cc1/C=C/C(=O)c1cc(OC)c(OC)c(OC)c1 [(E)-3-(5-Benzo[b]thiophen-2-yl-2-methoxy-phenyl)-1-(3,4,5-trimethoxy-phenyl)-propenone]
The IC50 of the first is 1.5-fold higher: 3 µM for the first, 2 µM for the second.

First: COc1ccc(C(=O)/C=C/c2ccccc2)cc1 [1-(4-methoxyphenyl)-3-phenylprop-2-en-1-one (6)]
Second: COc1ccc(-c2cccs2)cc1/C=C/C(=O)c1ccccc1 [(E)-3-(2-Methoxy-5-thiophen-2-yl-phenyl)-1-phenyl-propenone]
The IC50 of the first is 2.8-fold higher: 14 µM for the first, 5 µM for the second.

Going from `COc1cc(OC)c(-c2cccs2)cc1/C=C/C(=O)c1ccc(OC)c(OC)c1OC` [(E)-3-(2,4-Dimethoxy-5-thiophen-2-yl-phenyl)-1-(2,3,4-trimethoxy-phenyl)-propenone] to `COc1ccc(-c2cccs2)cc1/C=C/C(=O)c1cc(OC)c(OCC(=O)O)c(OC)c1` [{2,6-Dimethoxy-4-[(E)-3-(2-methoxy-5-thiophen-2-yl-phenyl)-acryloyl]-phenoxy}-acetic acid], the IC50 falls from 2 µM to 1 µM (2-fold). The second is the more potent here.

`COc1cc(OC)c(CCC(=O)c2cc(OC)c(OC)c(OC)c2)cc1Br` [3-(5-Bromo-2,4-dimethoxy-phenyl)-1-(3,4,5-trimethoxy-phenyl)-propan-1-one] and `COc1ccc(Br)cc1CCC(=O)c1cc(OC)c(OC)c(OC)c1` [3-(5-Bromo-2-methoxy-phenyl)-1-(3,4,5-trimethoxy-phenyl)-propan-1-one] cannot be ordered by IC50: over 50 µM for the first, over 50 µM for the second.

`COc1ccc(-c2cccs2)cc1/C=C/C(=O)c1ccc(OCc2cccnc2)c(OC)c1` [(E)-1-[3-Methoxy-4-(pyridin-3-ylmethoxy)-phenyl]-3-(2-methoxy-5-thiophen-2-yl-phenyl)-propenone] and `COc1ccc(-c2cccs2)cc1/C=C/C(=O)c1ccc(OCc2ccncc2)c(OC)c1` [(E)-1-[3-Methoxy-4-(pyridin-4-ylmethoxy)-phenyl]-3-(2-methoxy-5-thiophen-2-yl-phenyl)-propenone] are within 1.5-fold of each other in IC50: 3 µM for the first, 4 µM for the second.

First: COc1ccc(/C=C/C(=O)c2cc(C(C)(C)C)c(OC)c(C(C)(C)C)c2)cc1 [(E)-1-(3,5-Di-tert-butyl-4-methoxy-phenyl)-3-(4-methoxy-phenyl)-propenone]
Second: COc1ccc(-c2cccs2)cc1/C=C/C(=O)c1ccc(OCc2ccccn2)c(OC)c1 [(E)-1-[3-Methoxy-4-(pyridin-2-ylmethoxy)-phenyl]-3-(2-methoxy-5-thiophen-2-yl-phenyl)-propenone]
The IC50 of the first is 5.7-fold higher: 17 µM for the first, 3 µM for the second. The second is the more potent here.

In the case of `COc1ccc(-c2cccs2)cc1/C=C/C(=O)c1ccc(OCc2ccc(C(=O)O)cc2)c(OC)c1` [4-{2-Methoxy-4-[(E)-3-(2-methoxy-5-thiophen-2-yl-phenyl)-acryloyl]-phenoxymethyl}-benzoic acid], the IC50 is reported as 5 µM.
